PMC11579512, “Deoxybouvardin-glucoside induces apoptosis in non-small cell lung cancer cells by targeting EGFR/MET and AKT signaling pathway” (EXCLI Journal, 2024)

Test system: HCC827 cells
Assay: Cell cycle distribution (Muse, PI), HCC827
Type: cell-based, human
Details: 48 h
Description: HaCaT cells were grown in DMEM, whereas HCC827 and HCC827GR cells were grown in RPMI 1640. All culture media were supplemented with FBS (10 %) and P/S (1 %), and the cells were grown at 37 °C in 5 % CO2.
Cell cycle distribution analysis was performed using a Muse™ Cell Cycle Kit (MCH100106, Merck Millipore, Billerica, MA) based on propidium iodide (PI) staining. The cells were collected, fixed in 70 % ethanol overnight at -20 °C, and then stained with a Muse™ Cell Cycle Reagent at RT for 30 min in the dark. The cell cycle distribution was measured using a Muse™ Cell Analyzer (Merck Millipore).

COc1ccc(C[C@H]2C(=O)N[C@@H](C)C(=O)N(C)[C@H]3Cc4ccc(cc4)Oc4cc(ccc4O[C@@H]4O[C@H](CO)[C@@H](O)[C@H](O)[C@H]4O)C[C@@H](C(=O)N[C@H](C)C(=O)N[C@@H](C)C(=O)N2C)N(C)C3=O)cc1 [DBG, deoxybouvardin glucoside]
G0/G1 distribution (DBG 3 nM, mean of 3 samples): 61.33 | G2/M distribution (DBG 3 nM, mean of 3 samples): 31.20 | S distribution (DBG 3 nM, mean of 3 samples): 7.47 | G0/G1 distribution (DBG 3 nM, sample 1): 60.80 | G2/M distribution (DBG 3 nM, sample 1): 31.60 | S distribution (DBG 3 nM, sample 1): 7.60 | G0/G1 distribution (DBG 3 nM, sample 2): 61.70 | G2/M distribution (DBG 3 nM, sample 2): 31.40 | S distribution (DBG 3 nM, sample 2): 6.90 | G0/G1 distribution (DBG 3 nM, sample 3): 61.50 | G2/M distribution (DBG 3 nM, sample 3): 30.60 | S distribution (DBG 3 nM, sample 3): 7.90 | G0/G1 distribution (DBG 6 nM, mean of 3 samples): 64.27 | G2/M distribution (DBG 6 nM, mean of 3 samples): 28.30 | S distribution (DBG 6 nM, mean of 3 samples): 7.43 | G0/G1 distribution (DBG 6 nM, sample 1): 65.20 | G2/M distribution (DBG 6 nM, sample 1): 27.50 | S distribution (DBG 6 nM, sample 1): 7.30 | G0/G1 distribution (DBG 6 nM, sample 2): 63.60 | G2/M distribution (DBG 6 nM, sample 2): 28.30 | S distribution (DBG 6 nM, sample 2): 8.10 | G0/G1 distribution (DBG 6 nM, sample 3): 64.00 | G2/M distribution (DBG 6 nM, sample 3): 29.10 | S distribution (DBG 6 nM, sample 3): 6.90 | G0/G1 distribution (DBG 12 nM, mean of 3 samples): 74.37 | G2/M distribution (DBG 12 nM, mean of 3 samples): 19.80 | S distribution (DBG 12 nM, mean of 3 samples): 5.83 | G0/G1 distribution (DBG 12 nM, sample 1): 73.00 | G2/M distribution (DBG 12 nM, sample 1): 21.00 | S distribution (DBG 12 nM, sample 1): 6.00 | G0/G1 distribution (DBG 12 nM, sample 2): 75.10 | G2/M distribution (DBG 12 nM, sample 2): 19.40 | S distribution (DBG 12 nM, sample 2): 5.50 | G0/G1 distribution (DBG 12 nM, sample 3): 75.00 | G2/M distribution (DBG 12 nM, sample 3): 19.00 | S distribution (DBG 12 nM, sample 3): 6.00
